Experiments:
Type in all cases: in vivo
[1] = test system: Fatty Liver Diseases of SD Rats; experiment: Blood serum lipids in SD rats given lipid emulsion (fatty liver model); set-up: unit not given here; details: blood serum after 14 days of continuous administration; compounds 80 mg/kg, Obeticholic Acid 10 mg/kg, intragastric; lipid emulsion continued
Description: (§1) 500 g of lard oil was taken, placed in a container, and heated to melt. When the temperature rose to 100° C., it was added with 200 g of cholesterol to dissolve completely, and then further added with 20 g of propylthiouracil. The resulted mixture was stirred well, and added with 500 ml of Tween 80 after dissolution, resulting in an oil phase. At the same time, 600 mL of distilled water and 400 mL of 1,2-propanediol were taken and heated to 60° C. in a water bath, then were added with 40 g of sodium deoxycholate. The resulted mixture was stirred well until realizing complete dissolution, so as to give an aqueous phase. The aqueous phase was added into the oil phase and mixed well to give a lipid emulsion. The lipid emulsion was heated in a water bath of 37° C. before intragastric administration to animals.
(§2) An appropriate amount of pharmaceutical was weighed, added with 0.5% CMC-Na, and mixed homogeneously by grinding. There are groups for Compound 01 (80 mg/kg), Compound 02 (80 mg/kg), Compound 03 (80 mg/kg), Compound 04 (80 mg/kg), Compound 05 (80 mg/kg), Compound 06 (80 mg)/kg), Compound 07 (80 mg/kg), Compound 08 (80 mg/kg), Compound 09 (80 mg/kg), Compound 10 (80 mg/kg), Compound 11 (80 mg/kg), Compound 12 (80 mg/kg), Compound 13 (80 mg/kg), Compound 14 (80 mg/kg), Compound 15 (80 mg/kg), Compound 16 (80 mg/kg), Compound 17 (80 mg/kg), Compound 18 (80 mg/kg), Compound 19 (80 mg/kg), Compound 20 (80 mg/kg), Compound 21 (80 mg/kg), and Compound 22 (80 mg/kg).
(§3) Male SD rats weighing 180-200 g were fed adaptively for 7 days. Based on body weight, 10 animals were used as control and the remaining animals were intragastrically administered with the lipid emulsion every day, 1 ml/100 g body weight for 14 days. After fasting for 12 hours, 1 mL of blood was collected from the orbits of the animals, and was determined by Hitachi Automatic Biochemical Analyzer 7080 for serum cholesterol (CHO), triglyceride (TG), low density lipoprotein (LDL-C) and high density lipoprotein (HDL-C).
(§4) The modeled rats were continued with the intragastric administration of the lipid emulsion. At the same time, the pharmaceutical-administered groups were administrated with a corresponding dose of pharmaceuticals, while the Model group was administrated with an equal volume of solvent. The pharmaceutical-administered groups were administrated with the lipid emulsion in the morning, and with the pharmaceuticals in the afternoon. The animals were measured for the body weight once a week, and were observed. After 14 days of continuous administration, 1 mL of blood was collected from the orbits, and was determined for the contents of triglyceride, cholesterol, low density lipoprotein and high density lipoprotein in blood serum.

[2] = test system: Fatty Liver Diseases of SD Rats; experiment: Liver functions of lipid-emulsion SD rats after administration for 4 weeks; set-up: unit not given here; details: compounds 80 mg/kg, Obeticholic Acid 10 mg/kg
[3] = test system: fatty liver of the SD rats; experiment: Pathological sections and grading of fatty liver of SD rats; details: compounds 80 mg/kg, Sim 10 mg/kg, OCA 10 mg/kg
Description: as §1, §2, §3, §4

| Structure (SMILES) | CHO (serum cholesterol) [1] | HDL-C (high density lipoprotein) [1] | LDL-C (low density lipoprotein) [1] | TG (triglyceride) [1] | ALP [2] | ALT [2] | AST [2] | TBIL [2] | Pathological grading: Steatotic hepatocytes ([3]; animal 1) | Pathological grading: Steatotic hepatocytes ([3]; animal 2) | Pathological grading: Steatotic hepatocytes ([3]; animal 3) | Pathological grading: Steatotic hepatocytes ([3]; animal 4) | Pathological grading: Steatotic hepatocytes ([3]; animal 5) | Pathological grading: Infiltration of inflammatory cells ([3]; animal 1) | Pathological grading: Infiltration of inflammatory cells ([3]; animal 3) | Pathological grading: Infiltration of inflammatory cells ([3]; animal 5) | Pathological grading: Infiltration of inflammatory cells ([3]; animal 4) |
| --- | --- | --- | --- | --- | --- | --- | --- | --- | --- | --- | --- | --- | --- | --- | --- | --- | --- |
| CC(=O)c1ccc(NC(=O)C(C)(C)CCCOc2cc(C)ccc2C)cc1 [Compound 02] | 4.29 ± 0.65 | 1.74 ± 0.29 | 2.18 ± 0.71 | 0.51 ± 0.19 | 1001.52 ± 273.34 | 62.52 ± 13.24 | 187.00 ± 36.44 | 1.98 ± 0.81 | + (25-45% of hepatocytes undergoing steatosis) | + (25-45% of hepatocytes undergoing steatosis) | ++ (45-65% of hepatocytes undergoing steatosis) | + (25-45% of hepatocytes undergoing steatosis) | ++ (45-65% of hepatocytes undergoing steatosis) | – | – | – | – |
| Cc1ccc(C)c(OCCCC(C)(C)C(=O)Nc2ccc(C(=O)CNC(=O)c3cccnc3)cc2)c1 [Compound 12] | 4.03 ± 0.47 | 1.92 ± 0.11 | 2.16 ± 0.05 | 0.33 ± 0.05 | 994.50 ± 150.68 | 54.00 ± 5.72 | 137.75 ± 31.74 | 3.25 ± 2.11 | 0 | – | 0 | 0 | – | 0 | 0 | 0 | – |
| CC(=O)c1ccc(NC(=O)c2cccnc2)c(O)c1 [Compound 20] | – | – | – | – | – | – | – | – | ++ (45-65% of hepatocytes undergoing steatosis) | +++ (65-85% or more of hepatocytes undergoing steatosis) | ++ (45-65% of hepatocytes undergoing steatosis) | ++ (45-65% of hepatocytes undergoing steatosis) | ++ (45-65% of hepatocytes undergoing steatosis) | – | – | – | – |
| Cc1ccc(C)c(OCCCC(C)(C)C(=O)NCC(=O)c2ccc(O)c(O)c2)c1 [Compound 21] | 4.37 ± 0.62 | 1.99 ± 0.44 | 2.09 ± 0.68 | 0.80 ± 0.13 | 1074.00 ± 181.32 | 65.6 ± 27.20 | 184.40 ± 18.68 | 3.23 ± 1.35 | + (25-45% of hepatocytes undergoing steatosis) | 0 | + (25-45% of hepatocytes undergoing steatosis) | + (25-45% of hepatocytes undergoing steatosis) | + (25-45% of hepatocytes undergoing steatosis) | – | – | – | 0 |
| Cc1ccc(C)c(OCCCC(C)(C)C(=O)NCC(=O)c2ccc(OC(=O)c3cccnc3)c(O)c2)c1 [Compound 22] | 4.36 ± 1.08 | 1.47 ± 0.51 | 2.87 ± 1.25 | 0.57 ± 0.27 | 874.33 ± 251.66 | 58.00 ± 2.55 | 180.60 ± 27.19 | 2.97 ± 1.53 | + (25-45% of hepatocytes undergoing steatosis) | + (25-45% of hepatocytes undergoing steatosis) | ++ (45-65% of hepatocytes undergoing steatosis) | + (25-45% of hepatocytes undergoing steatosis) | + (25-45% of hepatocytes undergoing steatosis) | – | – | – | – |
| CC[C@H]1[C@@H](O)[C@@H]2[C@H](CC[C@]3(C)[C@@H]([C@H](C)CCC(=O)O)CC[C@@H]23)[C@@]2(C)CC[C@@H](O)C[C@@H]12 [Obeticholic Acid, Obeticholic acid, reference compound] | 4.74 ± 0.34 | 1.68 ± 0.22 | 2.85 ± 1.00 | 0.52 ± 0.06 | 999.60 ± 354.29 | 136.40 ± 62.68 | 248.20 ± 156.61 | 4.06 ± 1.40 | ++ (45-65% of hepatocytes undergoing steatosis) | ++ (45-65% of hepatocytes undergoing steatosis) | ++ (45-65% of hepatocytes undergoing steatosis) | +++ (65-85% or more of hepatocytes undergoing steatosis) | ++ (45-65% of hepatocytes undergoing steatosis) | – | – | – | – |
